Test results reported in patent US20200246438A1, “TARGETING GDF6 AND BMP SIGNALING FOR ANTI-MELANOMA THERAPY” (UNIVERSITY OF MASSACHUSETTS, priority 2015, published 2020).
“Also recorded” adds a separate entry of the source.

Tests used:
SKMEL28 melanoma cells = experiment: growth curves by direct cell counting, SKMEL28; format: cell-based, human; conditions: SKMEL28 cells treated with DMH1 vs control
Method: (§1) For growth curves 50,000 live cells were seeded per well in a 6-well tissue culture plate on day 0. The numbers of live cells were calculated every day using an automated cell counter (Nexcelom Bioscience Cellometer Auto T4) following standard procedures. All assays were performed with technical replicates. For clonogenic assays, 3,000 live cells were seeded in a 10 cm tissue culture plate. After 3 weeks, colonies were fixed and stained using bromophenol blue in acetone. ImageJ was used to quantify the number of colonies. In assays with DMH1 treatment, control or DMH1-containing media was replaced every other day. For soft agar assays a 0.5% bottom layer (1:1 with 1% agar and 2×DMEM with 20% FBS) and a 0.3% top layer (1:1 with 0.6% agar and 2×DMEM with 20% FBS) were used. 3,000 live cells per well of a 6-well tissue culture plate were added in the top layer. Media was added initially then replaced every 3 days. After 3 weeks, colonies were stained with nitroblue tetrazolium chloride overnight at 37° C. Once stained, individual wells were photographed, and ImageJ was used to count the number of colonies. All these assays were done in triplicate, and experiments were repeated at least twice. A representative image of each has been shown.

A375 melanoma cells [1] = experiment: clonogenic growth / colony formation assay; format: cell-based, human; conditions: A375-EMPTY vs A375-SMAD1DVD cells treated with DMH1
Method: as §1

[2] = tested on: BMP signaling (phospho-SMAD1); experiment: Western blot of BMP signaling (phospho-SMAD1) in DMH1-treated A375 cells; format: cell-based, human; conditions: 10 μM DMH1, Western blot
Method: Protein extracts were prepared as previously described (S. D. Epstein LB, Hunte-McDonough B, harris C A, Cytokines: A pratical approach (Balkwill F R., ed). 81-93 (1991)). Extracts were separated on 12% SDS-PAGE gels. Blots were probed with primary antibodies (GDF6 (Sigma PRS4691; 1:1000), phospho-SMAD1/5/8 (Cell Signaling 13820; 1:1000), SMAD1 (Cell Signaling 9743; 1:500), Total SMAD1/5/8 (Santa Cruz sc-6031-R; 1:1000), FLAG (Sigma F3165, 1:2000), GAPDH (Abcam 8245; 1:2000)) overnight at 4° C., washed five times in TBS plus 0.1% Tween (TBST) and then incubated with the appropriate HRP-conjugated secondary antibody (Jackson Labs) for 1 hour at room temperature. Membranes were washed five times in TBST and visualized on autoradiography film after incubating with ECL reagent (Supersignal West Pico or Supersignal West Femto; Thermo Scientific).

A375 melanoma cells [3] = experiment: A375 mouse xenografts treated with DMH1, tumor volume; format: in vivo; conditions: 25 mg/kg DMH1 intraperitoneally every other day vs vehicle
Description: All animal protocols were approved by the UMMS Institution Animal Care and Use Committee (A-2016, A-2171). Mice were randomly allocated to individual experimental groups. No blinding was done as animal groups were identified by tagging and cage labeling. Animals were excluded, according to pre-established criteria, if the tumor volume reached>1,000 mm^3; if tumor size or location affected the mobility or general health of animal, the animal was euthanized and excluded from the experiment or the complete experiment was terminated. A375 cells stably expressing an EGFP or GDF6 or SMAD1 shRNA and/or empty vector or GDF6-expressing vector or SMAD1DVD-overexpressing vector were subcutaneously injected into the flanks of 6-8-week-old BALB/c nu/nu female mice (Taconic Farms) to produce orthotopic primary tumor. Primary tumor growth was monitored every 3 days with calipers, and the tumor volume was calculated as described previously (C. Gazin, N. Wajapeyee, S. Gobeil, C. M. Virbasius, M. R. Green, An elaborate pathway required for Ras-mediated epigenetic silencing. Nature 449, 1073-1077 (2007)). For GDF6 knockdown, SMAD1 knockdown and epistasis experiments, […] live cells were injected. For GDF6 overexpression experiments, 1×10^6 live cells were injected. […] The growth of the tumor was monitored as described above. […]

A375 melanoma cells [4] = experiment: growth curves by direct cell counting, A375; format: cell-based, human; conditions: 10 μM DMH1 vs control media
Method: as §1

MeWo melanoma cells = experiment: proliferation of GDF6-knockdown cells supplemented with recombinant GDF6 protein; format: cell-based, human; conditions: MeWo cells treated with shRNAs targeting GDF6, recombinant GDF6 protein added to culture media

| Molecule | cell growth (growth curves) (SKMEL28 melanoma cells) | growth defects caused by DMH1 in SMAD1DVD-expressing cells (colony formation) (A375 melanoma cells [1]) | level of phospho-SMAD1 relative to total SMAD protein [2] | tumor volume / tumor growth (A375 melanoma cells [3]) | cell growth (growth curves) (A375 melanoma cells [4]) | proliferation of GDF6-knockdown cells (MeWo melanoma cells) | proliferation of GDF6-knockdown cells (MeWo melanoma cells; listed as recombinant GDF6) |
| --- | --- | --- | --- | --- | --- | --- | --- |
| CC(C)Oc1ccc(-c2cnc3c(-c4ccnc5ccccc45)cnn3c2)cc1 [DMH1] | grew more slowly | reversed by SMAD1DVD | reduced level of phospho-SMAD1 | smaller tumors arose and grew more slowly; also recorded: decreased tumorigenicity; also recorded: abrogates melanoma growth | grew more slowly; also recorded: inhibits A375 melanoma cell growth |  |  |
| recombinant GDF6 protein: recombinant GDF6 protein added to culture media; soluble, extracellular BMP ligand (BMP13) (protein, UniProt Q6KF10 336-455, looked up) Growth/differentiation factor …: TAFASRHGKRHGKKSRLRCSKKPLHVNFKELGWDDWIIAPLEYEAYHCEGVCDFPLRSHLEPTNHAIIQTLMNSMDPGSTPPSCCVPTKLTPISILYIDAGNNVVYKQYEDMVVESCGCR |  |  |  |  |  | restored | able to sustain their proliferation |
